From patent publication US11072632B2, “Inhibitors of 17β-HSD1, 17β-HSD3 and 17β-HSD10” (UNIVERSITÉ LAVAL, priority 2011, dated 2021)
Like-named read-outs stand apart in the source and are kept apart here.

Columns and labels:
[1] = biological target: T1, 17β-HSD3 (Homo sapiens, UniProt P37058); assay: Inhibition of 17β-HSD3 in intact HEK-293 cells; assay type: cell-based; details: HEK293, 1 h
T1 construct: expressed in transfected cells; host or cells: HEK-293 (homogenate)
T1 sequence (P37058 1-310): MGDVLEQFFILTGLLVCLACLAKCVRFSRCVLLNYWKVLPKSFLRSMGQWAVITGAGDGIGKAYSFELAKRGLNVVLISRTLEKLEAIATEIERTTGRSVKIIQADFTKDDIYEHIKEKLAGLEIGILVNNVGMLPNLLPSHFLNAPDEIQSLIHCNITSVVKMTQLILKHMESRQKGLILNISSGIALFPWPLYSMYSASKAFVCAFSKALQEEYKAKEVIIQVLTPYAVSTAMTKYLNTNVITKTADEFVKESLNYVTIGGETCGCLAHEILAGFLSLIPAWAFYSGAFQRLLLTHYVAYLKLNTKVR

[2] = biological target: T1, 17β-HSD3; assay: Inhibition of 17β-HSD3 in homogenated HEK-293 cells; assay type: biochemical
[3] = Table 2 (17β-HSD3), read-out: Intact cells (%) (0.1 μM)
[4] = Table 2 (17β-HSD3), read-out: Intact cells (%) (1 μM)
[5] = Table 2 (17β-HSD3), read-out: Homo (%) (0.1 μM)
[6] = Table 2 (17β-HSD3), 1 μM, read-out: Homo (%) (1 μM)
[7] = Table 2 (17β-HSD3), [14C]-Δ4-dione 50 nM into [14C]-T, read-out: Homo (%) (0.01 μM)
[8] = read-out: Intact cells (%) (1 μM), Table 2 (17β-HSD3)
[9] = read-out: Homo (%) (0.1 μM), Table 2 (17β-HSD3)
[10] = read-out: Homo (%) (1 μM), Table 2 (17β-HSD3), 1 μM

| Compound | inhibition at 0.1 µM [1, 3] | inhibition at 1 µM [1, 4] | inhibition at 0.1 µM [2, 5] | inhibition at 1 µM [2, 6] | inhibition at 0.01 µM [2, 7] | inhibition at 1 µM [1, 8] | inhibition at 0.1 µM [2, 9] | inhibition at 1 µM [2, 10] | also measured |
| --- | --- | --- | --- | --- | --- | --- | --- | --- | --- |
| C[C@]12CC[C@@]3(C[C@@H]1CC[C@@H]1[C@@H]2CC[C@]2(C)C(=O)CC[C@@H]12)CN(CCC(CN1CCOCC1)OC(=O)CCC1CCCC1)C(=O)O3 (some centres unmarked) [Compound 4, reference compound] |  |  |  |  |  |  |  |  | inhibition at 0.1 µM ([1]; read-out: Intact cells (%) (0.1 μM), Table 4): 49%; inhibition at 0.01 µM ([2]; read-out: Homo (%) (0.01 μM), Table 4): 2%; inhibition at 0.1 µM ([2]; read-out: Homo (%) (0.1 μM), Table 4): 79%; inhibition at 1 µM ([2]; read-out: Homo (%) (1.0 μM), Table 4, 1.0 μM): 94% |
| CN(Cc1ccccc1)C[C@@]1(O)CC[C@@]2(C)[C@@H](CC[C@@H]3[C@@H]2CC[C@]2(C)C(=O)CC[C@@H]32)C1 [Compound 7b, (3α,5α)-3-{[benzyl(methyl)amino]methyl}-3-hydroxyandrostan-17-one] | 48% | 92% | 79% | 89% | 28% |  |  |  |  |
| CCN(CC)C[C@@]1(O)CC[C@@]2(C)[C@@H](CC[C@@H]3[C@@H]2CC[C@]2(C)C(=O)CC[C@@H]32)C1 [Compound 7c, (3α,5α)-3-[(diethylamino)methyl]-3-hydroxyandrostan-17-one] |  | 14% | 10% | 60% | 0% |  |  |  |  |
| CCCCN(CCCC)C[C@@]1(O)CC[C@@]2(C)[C@@H](CC[C@@H]3[C@@H]2CC[C@]2(C)C(=O)CC[C@@H]32)C1 [Compound 7d, (3α,5α)-3-[(dibutylamino)methyl]-3-hydroxyandrostan-17-one] | 53% | 90% | 70% | 85% | 13% |  |  |  |  |
| C[C@]12CC[C@](O)(CN3CCCCC3)C[C@@H]1CC[C@@H]1[C@@H]2CC[C@]2(C)C(=O)CC[C@@H]12 [Compound 7e, (3α,5α)-3-hydroxy-3-(piperidin-1-ylmethyl)androstan-17-one] |  |  |  |  | 9% | 23% | 19% | 69% |  |
| C[C@]12CC[C@](O)(CN3CCC(Cc4ccccc4)CC3)C[C@@H]1CC[C@@H]1[C@@H]2CC[C@]2(C)C(=O)CC[C@@H]12 [Compound 7f, (3α,5α)-3-[(4-benzylpiperidin-1-yl)methyl]-3-hydroxyandrostan-17-one] |  |  |  |  | 40% | 52% | 82% | 90% |  |
| C[C@]12CC[C@](O)(CN3CCC(N4CCCCC4)CC3)C[C@@H]1CC[C@@H]1[C@@H]2CC[C@]2(C)C(=O)CC[C@@H]12 [Compound 7g, (3α,5α)-3-(1,4′-bipiperidin-1′-ylmethyl)-3-hydroxyandrostan-17-one] |  | 20% | 4% | 69% | 0% |  |  |  |  |
| CN1CCN(C[C@@]2(O)CC[C@@]3(C)[C@@H](CC[C@@H]4[C@@H]3CC[C@]3(C)C(=O)CC[C@@H]43)C2)CC1 [Compound 7h, (3α,5α)-3-hydroxy-3-[(4-methylpiperazin-1-yl)methyl]androstan-17-one] | 2% |  | 0% | 40% | 0% |  |  |  |  |
| C[C@]12CC[C@](O)(CN3CCN(c4ccccc4)CC3)C[C@@H]1CC[C@@H]1[C@@H]2CC[C@]2(C)C(=O)CC[C@@H]12 [Compound 7i, (3α,5α)-3-hydroxy-3-[(4-phenylpiperazin-1-yl)methyl]androstan-17-one] |  |  |  |  | 13% | 68% | 78% | 89% |  |
| C[C@]12CC[C@](O)(CN3CCN(Cc4ccc(C(F)(F)F)cc4)CC3)C[C@@H]1CC[C@@H]1[C@@H]2CC[C@]2(C)C(=O)CC[C@@H]12 [Compound 10c, (3α,5α)-3-hydroxy-3-({4-[4-(trifluoromethyl)benzyl]piperazin-1-yl}methyl)androstan-17-one] |  |  |  |  |  |  |  |  | inhibition at 0.1 µM ([1]; Table 3, read-out: Intact cells (%) (0.1 μM)): 33%; inhibition at 0.01 µM ([2]; Table 3, read-out: Homo (%) (0.01 μM)): 14%; inhibition at 0.1 µM ([2]; Table 3, read-out: Homo (%) (0.1 μM)): 81% |
